Experimental data as given in patent US9468687B2, “Immuno gene therapy for treatment of cancer and hyperproliferative diseases” (priority 2004, dated 2016).

Key:
[1] = test system: SCCVII squamous cell carcinoma; experiment: Subcutaneous squamous cell carcinoma (SCCVII) tumor growth; format: in vivo, mouse; settings: pmIL-12/PPC 25 μg intratumoral weekly x4, two injections
Method: The effect of local administration of pIL-12/PPC complexes on the growth of subcutaneously implanted squamous cell (SCCVII) carcinoma was examined. 4×10^5 squamous carcinoma cells in 100 μl were implanted sc on the right flank of female Female CH3 mice (6-9 weeks, 17-22 grams) The mIL-12 plasmid was complexed with PPC at a 11:1 N:P ratio and administered locally into the tumors at a DNA dose of 25 μg in an injection volume of 50 μl once every week for four weeks starting ˜11 days after tumor implantation. Treatment groups of 12 mice were used and tumor growth was monitored twice per week using caliper measurement.
For combination therapy both gene therapy and chemotherapy treatment were given as described above. Treatment groups of 12 mice were used and tumor growth was monitored twice per week using caliper measurement.

[2] = test system: ID8 peritoneal disseminated ovarian tumors; experiment: pIL-12/PPC plus paclitaxel in peritoneal disseminated ovarian tumors; format: in vivo, mouse
Method: Intraperitoneal IL-12 gene therapy was combined with paclitaxel chemotherapy to enhance the therapeutic response to disseminated ovarian tumors in mice. The mice were injected intraperitoneally with 5×10^6 ID8 cells in a volume of 500 μl. The treatments were started when tumor burden (mouse weight) reached approximately 20 grams (˜21 days after injection of cells). The mice were injected intraperitoneally with 25 μg of pmIL-12 complexed with PPC at a 11:1 N:P ratio in a volume of 500 μl. The gene treatment was repeated after 7 days constituting a total of two injections (Day 1, 8) per the study. Paclitaxel (Taxol®) was administered only once (Day 0) by intravenous injection at a dose of 8 mg/kg dose in an injection volume of 250 μL. For combination therapy, both gene therapy and chemotherapy treatments were given as described above. Animals were periodically weighed to assess the effect of gene treatment on tumor burden. […] The inhibition of tumor burden by pmIL-12/PPC complexes was slightly higher than that of paclitaxel.

Renca tumors = settings: cited from earlier work
CT26 tumors = settings: cited from earlier work

O=P1(N(CCCl)CCCl)NCCCO1 (stereo not drawn) [cyclophosphamide]
tumor growth in combination study ([1]; cyclophosphamide 200 mg/kg iv): only a partial inhibition of tumor growth | animals that completely rejected the tumor (complete rejection rate) ([1]; cyclophosphamide iv): 10%

CC(=O)O[C@H]1C(=O)[C@@]2(C)[C@H]([C@H](OC(=O)c3ccccc3)[C@]3(O)C[C@H](OC(=O)[C@H](O)[C@@H](NC(=O)c4ccccc4)c4ccccc4)C(C)=C1C3(C)C)[C@]1(OC(C)=O)CO[C@@H]1C[C@@H]2O [paclitaxel]
peritoneal tumor burden ([2]; pmIL-12 25 μg ip day 1, 8, paclitaxel 8 mg/kg iv day 0): tumor reduction | survival ([2]; pmIL-12/PPC ip, paclitaxel 8 mg/kg iv): improved survival

IFN-α
tumor rejection (Renca tumors): 25% | rejection rate (CT26 tumors): 0%
